Experiments:
[1] = test system: human prostate cancer cells (22rv1); assay: Prostate cancer spheroid cell death test; assay type: cell-based; details: 24 hour exposure to increasing doses; spheroids
Protocol: (§1) The respective cells were individually cultured in a growth medium prepared using RPMI-1640 medium containing 11.1 mM D-glucose with 10% fetal bovine serum, 10 mM HEPES, 2 mM L-glutamine, 1 mM sodium pyruvate, 0.05 mM 2-mercaptoethanol, and Antibiotic-Antimycotic. These cells were maintained in T75 tissue culture flasks in a humidified incubator at 37° C. and 5% CO2. The media were changed on a third day after cell plating, and the cells were passaged on day 5 by trypsinization.
(§2) Custom-made micromolds with 100 μm diameter wells were loaded with the cells (U.S. Pat. No. 8,735,154, incorporated by reference herein). The media were changed every day by partial replacement. Cell aggregates were allowed to form in the micromolds for 72 hours and then were transferred to a 100 mm non-treated tissue culture dishes for 3 additional days. The spheroids were passed through 70 μm and 100 μm cell strainers (#3431751 and #43152, Corning, Tewksbury, Mass.) and maintained in HEPES Balanced Salt Solution comprised of: 20 mM HEPES, 114 mMNaCl, 4.7 mM KCl, 1.2 mM KH2PO4, 1.16 mM MgSO4, 2.5 mM CaCl2, 25.5 mM NaHCO3 and 0.2% bovine serum albumin (fatty acid free), pH 7.2.
(§3) The cells were treated and tested as set forth in Example 1.

[2] = test system: human lung cancer cells (H358); assay: Lung cancer spheroid cell death test; assay type: cell-based; details: 24 hour exposure to increasing doses; spheroids
Protocol: as §1, §2
The lymphomas treatment methods used were identical to those described in Example 2 relative to the pediatric leukemia cells, whereas the lung cancer treatment method was the same as described in Example 1.

[3] = test system: human ovarian cancer cells (A1847); assay: Ovarian cancer spheroid cell death test; assay type: cell-based; details: 24 hour exposure to increasing doses; spheroids
Protocol: as §1, §2, §3

ovarian cancer cells = details: low doses of doxorubicin alone (up to 0.158, unit not given)
Protocol: In this test, the synergism of GZ17-6.02 with doxorubicin (a common chemotherapy drug) was tested on ovarian cancer cells. In this test, increasing doses of doxorubicin were administered to ovarian cancer spheroids and cell deaths were measured, as described in Example 1. The protocol involved testing doxorubicin alone at various dosages (FIG. 8, doxorubicin alone—closed circles), with comparative tests using the various dosages of doxorubicin in combination with either 0.2 mg/mL (FIG. 8 open circles) or 0.4 mg/mL (FIG. 8 closed triangles) GZ17-6.02. Additionally, the induced cell death results from use of 0.2 mg/mL GZ17-6.02 alone (FIG. 8, line A) and 0.4 mg/mL GZ17-6.02 alone (FIG. 8, line B) were determined.

| Compound | cell death (number of live cells) [1] | cell death (number of live cells) [2] | cell death (number of live cells) [3] | cell death, doxorubicin alone (ovarian cancer cells) |
| --- | --- | --- | --- | --- |
| Cc1nccc2c1[nH]c1cc(O)ccc12.Cl [harmole hydrochloride] | demonstrated anticancer effects | demonstrated anticancer effects | demonstrated anticancer effects | – |
| COc1cccc(C=O)c1O [O -vanillin] | demonstrated anticancer effects | demonstrated anticancer effects | demonstrated anticancer effects | – |
| CC1=NCCc2c1[nH]c1cc(O)ccc21.Cl [harmalol hydrochloride] | demonstrated anticancer effects | demonstrated anticancer effects | demonstrated anticancer effects | – |
| COc1ccc2c3c([nH]c2c1)[C@@H](C)NCC3 [tetrahydro-harmine] | demonstrated anticancer effects | demonstrated anticancer effects | demonstrated anticancer effects | – |
| COc1ccc(C(=O)O)cc1O [isovanillic acid] | demonstrated anticancer effects | demonstrated anticancer effects | demonstrated anticancer effects | – |
| COc1ccc(CO)cc1O [isovanillyl alcohol] | demonstrated anticancer effects | demonstrated anticancer effects | demonstrated anticancer effects | – |
| COc1cccc2c1C(=O)c1c(O)c3c(c(O)c1C2=O)C[C@@](O)(C(=O)CO)C[C@@H]3O[C@H]1C[C@H](N)[C@H](O)[C@H](C)O1 [doxorubicin] | – | – | – | ineffective |
| COc1cc(C=O)ccc1O [vanillin] | demonstrated anticancer effects | demonstrated anticancer effects | demonstrated anticancer effects | – |
| COc1ccc2c3c([nH]c2c1)C(C)=NCC3 [harmaline] | demonstrated anticancer effects | demonstrated anticancer effects | demonstrated anticancer effects | – |

Source: patent publication US11266634B2, “Methods for treating melanoma with human therapeutic agents” (Ankh Life Sciences Limited, priority 2014, dated 2022)
